Measured values from US20220112464A1, “VASCULARIZED ORGANOID MODEL INCORPORATING ISOLATED HUMAN MICROVESSEL FRAGMENTS” (Advanced Solutions Life Sciences, LLC, priority 2020, published 2022).

How the values were obtained:
microvessels = experiment: Microvessel growth (vessel length) under different culture media, FIG. 13; assay type: cell-based, human; details: medium or supplement used for microvessel culture
Source text: FIG. 13 is a graph depicting vessel length (mm) of organoids cultured under a variety of conditions (serum free+VEGF, 10% FBS, RPMI/B-27/VEGF, ADM, AMM, RPMI/B-27+IM, RMPI/B-27+Dex, RPMI/B-27+IBMX).

adipose-like organoids [1] = experiment: Lipolysis assay (glycerol production), 3D organoids; assay type: cell-based, human; details: 1 μM isoproterenol for 4 hours, organoids with and without microvessels
Method: A lipolysis assay was performed on 2D (after 24 days of 2D culture) and 3D cultures (after 17 days of 2D and 7 days of 3D culture), using a commercially available kit (Sigma). Samples were treated with 1 μM isoproterenol for 4 hours. For 2D cultures, supernatants were then mixed with the reaction solution and incubated according to manufacturer's instructions. For 3D cultures, organoids were homogenized in the supernatant after isoproterenol incubation using a plastic pestle, to release glycerol trapped inside the organoid. The homogenized sample was briefly centrifuged, and supernatants were used for the remainder of the manufacturer's protocol. Samples were read at 570 nm using a plate reader (BioTek Instruments). For 2D cultures, samples cultured in FBS were used as control samples that will not undergo lipolysis. For 3D samples, negative controls were not treated with isoproterenol.

adipose-like organoids [2] = experiment: TNF-α challenge with RT-PCR of adipocyte markers; assay type: cell-based, human; details: TNF-α treatment
Method: (§1) Adipose organoids were seeded and cultured as described above. After 7 days of culture, medium was changed from AMM to AMM supplemented with or without 50 ng/ml TNF-α (Peprotech). The following day, organoids were either flash frozen for PCR analysis, fixed for histology, or used for an IL-6 enzyme-linked immunosorbent assay (ELISA).
RNA was extracted from either 2D cultures or 3D organoids using a Qiagen RNeasy Plus Micro kit following manufacturer's protocols. RNA was converted to cDNA with SuperScript™ IV VILO™ Master Mix (Fisher Scientific). cDNA was amplified with human primers (IDT Technologies) listed in Table 1. Primers for insulin receptor were designed using Primer3 software (NIH) and verified using BLAST database (NIH), with gene coding obtained from GenBank (NIH).
Real-time PCR was performed using a SYBER master mix (Fisher Scientific) and CFX96 Real Time System (Bio Rad). Adiponectin and PPAR-γ expression were normalized to GAPDH (IDT Technologies) and compared to either FBS treated controls (2D) or organoids without microvessels (3D). After RT-PCR, amplified cDNA was loaded into a 2% agarose gel and run at 90V. Gels were imaged for SYBER green on a gel scanner (Azure Biosystems).

adipose-like organoids [3] = experiment: TNF-α challenge with IL-6 ELISA; assay type: cell-based, human; details: 50 ng/ml TNF-α, approximately 24 hours, organoids with and without microvessels
Method: as §1
Organoids with and without microvessels and with or without TNF-α treatment were transferred with their supernatants to micro-centrifuge tubes and briefly homogenized with a plastic pestle. Samples were diluted and centrifuged for 2 minutes at 12,000 rcf to pellet remaining matrix and cell debris. An ELISA was performed with the supernatant following manufacturer instructions (R&D systems) to measure secreted interleukin-6 (IL-6) as a marker of adipocyte inflammation and dysfunction.

human microvessels = details: 50 ng/ml VEGF in serum free medium, 6 days of culture, versus no VEGF

CC(C)Cn1c(=O)n(C)c(=O)c2[nH]cnc21 [IBMX, 3-isobutyl-1-methylxanthine]
microvessel growth (microvessels): permanently impeded microvessel growth

CC(C)NCC(O)c1ccc(O)c(O)c1 (stereo not drawn) [isoproterenol]
glycerol production in response to isoproterenol (adipose-like organoids [1]): produced glycerol

TNF-α
adiponectin expression (adipose-like organoids [2]; organoids with microvessels): small but distinct downregulation | adiponectin expression (adipose-like organoids [2]; organoids with no microvessels): changed minimally | IL-6 secretion (adipose-like organoids [3]): dramatically increased IL-6 secretion

vascular endothelial growth factor [VEGF]
vascular growth / vessel density of microvessels (human microvessels): significantly increased vascular growth
